Our source for the IC50 values is US10954253B2, “1,2-dihydro-3H-pyrazolo[3,4-d]pyrimidin-3-one derivative as Wee1 inhibitor” (SHIJIAZHUANG SAGACITY NEW DRUG DEVELOPMENT CO., LTD., priority 2017, dated 2021).

The test deals with Wee1 (Homo sapiens (Human), UniProt P30291). In words: In vitro enzymatic inhibitory activity (33P-ATP filter-binding kinase assay, MBP substrate). Format: biochemical. To be noted: Wee-1 150 nM, MBP 20 μM. As for the experimental part: The compounds of the present invention for experimental use were all self-prepared, and their chemical names and structural formulas are shown in the preparation embodiments of the respective compounds. The experimental tests were carried out in Reaction Biology Corporation, USA, and the experimental results were provided by the company. Basic reaction buffer: 20 mM hydroxyethylpiperazine ethanesulfuric acid (pH 7.5), 10 mM magnesium chloride, 1 mM EGTA, 0.02% Brij35, 0.02 mg/mL bovine serum albumin, 0.1 mM Na3VO4, 2 mM DTT, 1% DMSO Enzyme: Wee-1 concentration is 150 nM Matrix: MBP concentration is 20 μM The tested compound was formulated into a 5 mM solution with 100% DMSO, and a 10 points 3-fold gradient dilution was performed with DMSO through an automated pipetting station epMotion 5070. 1. Fresh matrix configuration reaction buffer was prepared; 2. The Wee-1 was added into the matrix solution and shaked gently; 3. DMSO solution of the compound were added into the kinase reaction mixture using an acoustic technique (Echo 550; nanoliter range) and incubated for 20 minutes at room temperature; 4. ^33P-ATP (specific activity, 10 μCi/μL) was added into the reaction mixture to stimulate the reaction; 5. Incubated for 2 hours at room temperature; 6. Kinase activity was detected by filter-binding method.
Sequence of Wee1 (P30291 whole entry): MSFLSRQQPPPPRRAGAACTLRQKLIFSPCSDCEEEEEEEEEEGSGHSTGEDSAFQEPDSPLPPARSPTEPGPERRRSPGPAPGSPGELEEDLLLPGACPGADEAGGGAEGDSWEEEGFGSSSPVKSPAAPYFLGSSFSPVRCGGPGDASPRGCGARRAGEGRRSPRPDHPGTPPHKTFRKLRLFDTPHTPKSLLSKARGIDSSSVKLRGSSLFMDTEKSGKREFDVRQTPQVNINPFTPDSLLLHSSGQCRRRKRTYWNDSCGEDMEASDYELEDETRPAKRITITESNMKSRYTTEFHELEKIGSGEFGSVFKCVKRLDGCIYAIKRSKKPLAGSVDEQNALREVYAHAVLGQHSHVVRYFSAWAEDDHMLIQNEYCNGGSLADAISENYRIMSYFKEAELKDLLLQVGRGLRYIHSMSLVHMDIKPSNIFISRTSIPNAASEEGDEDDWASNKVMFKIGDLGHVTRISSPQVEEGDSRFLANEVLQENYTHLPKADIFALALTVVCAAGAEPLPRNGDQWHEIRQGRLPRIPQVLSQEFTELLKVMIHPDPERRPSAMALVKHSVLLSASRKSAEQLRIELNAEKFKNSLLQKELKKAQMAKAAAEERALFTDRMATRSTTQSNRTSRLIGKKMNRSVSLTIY
Compound `C=CCn1c(=O)c2cnc(Nc3ccc(N4CCC5(CCN(C)CC5)CC4)cc3)nc2n1-c1ccccn1` [Embodiment 3, 2-allyl-6-((4-(9-methyl-3,9-diazaspiro[5.5]undecan-3-yl)phenyl)amino)-1-(pyridin-2-yl)-1H-pyrazolo[3,4-d]pyrimidin-3(2H)-one] yielded an IC50 of 24.6 nM. `C=CCn1c(=O)c2cnc(Nc3ccc(N4CCC5(CCN(C)CC5)CC4)cc3)nc2n1-c1ncccn1` [Embodiment 4, 2-allyl-6-((4-(9-methyl-3,9-diazaspiro[5.5]undecan-3-yl)phenyl)amino)-1-(pyrimidin-2-yl)-1H-pyazolo[3,4-d]pyrimidine-3(2H)-one] had a concentration for half-maximal inhibition (IC50) of 251 nM. Regarding `C=CCn1c(=O)c2cnc(Nc3ccc(N4CCC5(CCN(C)CC5)CC4)cc3)nc2n1-c1cncnc1` [Embodiment 6, 2-allyl-6-((4-(9-methyl-3,9-diazaspiro[5.5]undecan-3-yl)phenyl)amino)-1-(pyrimidin-5-yl)-1H-pyrazolo[3,4-d]pyrimidin-3(2H)-one], the half-maximal inhibitory concentration (IC50) is 102 nM. `C=CCn1c(=O)c2cnc(Nc3ccc(N4CCC5(CCN(C)CC5)CC4)cc3)nc2n1-c1cccs1` [Embodiment 7, 2-allyl-6-((4-(9-methyl-3,9-diazaspiro[5.5]undecan-3-yl)phenyl)amino)-1-(thiophen-2-yl)-1H-pyrazolo[3,4-d]pyrimidin-3(2H)-one] returned a concentration for half-maximal inhibition (IC50) of 82.5 nM. In the case of `C=CCn1c(=O)c2cnc(Nc3ccc(N4CCC5(CCN(C)CC5)CC4)cc3)nc2n1-c1ccsc1` [Embodiment 8, 2-allyl-6-((4-(9-methyl-3,9-diazaspiro[5.5]undecan-3-yl)phenyl)amino)-1-(thiophen-3-yl)-1H-pyrazolo[3,4-d]pyrimidin-3(2H)-one], the IC50 was 51.9 nM. As to `C=CCn1c(=O)c2cnc(Nc3ccc(N4CCC5(CCN(C)CC5)CC4)cc3)nc2n1-c1nccs1` [Embodiment 9, 2-allyl-6-((4-(9-methyl-3,9-diazaspiro[5.5]undecan-3-yl)phenyl)amino)-1-(thiazol-2-yl)-1H-pyrazolo[3,4-d]pyrimidin-3(2H)-one], the half-inhibitory concentration (IC50) stood at 109 nM. `C=CCn1c(=O)c2cnc(Nc3ccc(N4CCC5(CCN(C)CC5)CC4)cc3)nc2n1-c1cccc(Cl)c1` [Embodiment 11, 2-allyl-1-(3-chlorophenyl)-6-((4-(9-methyl-3,9-diazaspiro[5.5]undecan-3-yl)phenyl)amino)-1H-pyrazolo[3,4-d]pyrimidin-3(2H)-one] gave an IC50 of 48.1 nM.

Take `C=CCn1c(=O)c2cnc(Nc3ccc(N4CCC5(CCN(C)CC5)CC4)cc3)nc2n1-c1ccc(Cl)cc1` [Embodiment 12, 2-allyl-1-(4-chlorophenyl)-6-((4-(9-methyl-3,9-diazaspiro[5.5]undecan-3-yl)phenyl)amino)-1H-pyrazolo[3,4-d]pyrimidin-3(2H)-one]: the 50% inhibitory concentration (IC50) worked out at 25.3 nM. With `C=CCn1c(=O)c2cnc(Nc3ccc(N4CCC5(CCN(C)CC5)CC4)cc3)nc2n1-c1cccc(C(N)=O)n1` [Embodiment 13, 6-(2-allyl-6-((4-(9-methyl-3,9-diazaspiro[5.5]undecan-3-yl)phenyl)amino)-3-oxo-2,3-dihydro-1H-pyrazolo[3,4-d]pyrimidin-1-yl)picolinamide], the half-inhibitory concentration (IC50) amounted to 42 nM. As for `C=CCn1c(=O)c2cnc(Nc3ccc(N4CCC5(CCN(C)CC5)CC4)cc3)nc2n1-c1cccc(C(=O)NC)n1` [Embodiment 14, 6-(2-allyl-6-((4-(9-methyl-3,9-diazaspiro[5.5]undecan-3-yl)phenyl)amino)-3-oxo-2,3-dihydro-1H-pyrazolo[3,4-d]pyrimidin-1-yl)-N-methylpicolinamide], the figure is 47.8 nM; as for `C=CCn1c(=O)c2cnc(Nc3ccc(N4CCC5(CCN(C)CC5)CC4)cc3)nc2n1-c1cccc(C(N)=O)c1` [Embodiment 16, 3-(2-allyl-6-((4-(9-methyl-3,9-diazaspiro[5.5]undecan-3-yl)phenyl)amino)-3-oxo-2,3-dihydro-1H-pyrazolo[3,4-d]pyrimidin-1-yl)benzamide], 52.8 nM. In turn, `C=CCn1c(=O)c2cnc(Nc3ccc(N4CCC5(CCN(C)CC5)CC4)cc3)nc2n1-c1cccc(C(=O)NC)c1` [Embodiment 17, 3-(2-allyl-6-((4-(9-methyl-3,9-diazaspiro[5.5]undecan-3-yl)phenyl)amino)-3-oxo-2,3-dihydro-1H-pyrazolo[3,4-d]pyrimidin-1-yl)-N-methylbenzamide] displayed a 50% inhibitory concentration (IC50) of 42.5 nM. Turning to `CN1CCC2(CC1)CCN(c1ccc(Nc3ncc4c(=O)n(C)n(-c5ccccc5)c4n3)cc1)CC2` [Embodiment 18, 2-methyl-6-((4-(9-methyl-3,9-diazaspiro[5.5]undecane-3-yl)phenyl)amino)-1-phenyl-1H-pyrazolo[3,4-d](2H)-one], the half-maximal inhibitory concentration (IC50) was 131 nM. `CCn1c(=O)c2cnc(Nc3ccc(N4CCC5(CCN(C)CC5)CC4)cc3)nc2n1-c1ccccc1` [Embodiment 19, 2-ethyl-6-((4-(9-methyl-3,9-diazaspiro[5.5]undecan-3-yl)phenyl)amino)-1-phenyl-1H-pyrazolo[3,4-d](2H)-one] registered a 50% inhibitory concentration (IC50) of 83.2 nM. Consider `CN1CCC2(CC1)CCN(c1ccc(Nc3ncc4c(=O)n(CC(F)F)n(-c5ccccc5)c4n3)cc1)CC2` [Embodiment 22, 2-(2,2-difluroethyl)-6-((4-(9-methyl-3,9-diazaspiro[5.5]undecan-3-yl)phenyl)amino)-1-phenyl-1H-pyrazolo[3,4-d](2H)-one], for which the half-inhibitory concentration (IC50) turned out to be 239 nM.

Take `CN1CCC2(CC1)CCN(c1ccc(Nc3ncc4c(=O)n(Cc5ccccc5)n(-c5ccccc5)c4n3)cc1)CC2` [Embodiment 23, 2-benzyl-6-((4-(9-methyl-3,9-diazaspiro[5.5]undecane-3-yl)phenyl)amino)-1-phenyl-1H-pyrazolo[3,4-d](2H)-one]: the IC50 came out at 79.6 nM. In turn, `CCCn1c(=O)c2cnc(Nc3ccc(N4CCC5(CCN(C)CC5)CC4)cc3)nc2n1-c1cccc(C(C)(C)O)n1` [Embodiment 24, 1-(6-(2-hydroxypropan-2-yl)pyridin-2-yl)-6-((4-(9-methyl-3,9-diazaspiro[5.5]undecan-3-yl)phenyl)amino)-2-propyl-1H-pyrazolo[3,4-d]pyrimidin-3(2H)-one] showed a 50% inhibitory concentration (IC50) of 48.8 nM.

As for `C=CCn1c(=O)c2cnc(Nc3ccc(N4CCC5(CCN(C)CC5)CC4)cc3)nc2n1-c1cccc(Cl)n1` [Embodiment 25, 2-allyl-1-(6-chloropyridin-2-yl)-6-((4-(9-methyl-3,9-diazaspiro[5.5]undecan-3-yl)phenyl)amino)-1H-pyrazolo[3,4-d]pyrimidin-3(2H)-one], the IC50 was determined as 20.4 nM.

Regarding `C=CCn1c(=O)c2cnc(Nc3ccc(N4CCC5(CCN(C)CC5)CC4)cc3)nc2n1-c1ccc(Cl)cn1` [Embodiment 26, 2-allyl-1-(5-chloropyridin-2-yl)-6-((4-(9-methyl-3,9-diazaspiro[5.5]undecan-3-yl)phenyl)amino)-1H-pyrazolo[3,4-d]pyrimidin-3(2H)-one], the IC50 was determined as 14.1 nM. As for `C=CCn1c(=O)c2cnc(Nc3ccc(N4CCC5(CCN(C)CC5)CC4)cc3)nc2n1-c1cccc(F)n1` [Embodiment 27, 2-allyl-1-(6-fluoropyridin-2-yl)-6-((4-(9-methyl-3,9-diazaspiro[5.5]undecane-3-yl)phenyl)amino)-1H-pyrazolo[3,4-d]pyrimidin-3(2H)-one], the figure is 24.9 nM.

The term IC50 denotes the concentration that inhibits the measured activity by half. Read a high IC50 as lower potency.
